# ± gives the uncertainty stated by the source.
# Tested on: ozone
# Experiment: apparent second-order rate constant for reaction with ozone (kapp,O3) (M-1 s-1); higher = faster oxidation by ozone
# Conditions: pH 7; temperature: 22 C; OH radical scavenger: tBuOH 80 mM; phosphate 4 mM
# Description: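 Apparent second-order rate constants for reaction with ozone at pH 7 were determined by multicompound competition kinetics. Mixtures of targets and competitors (10 ug/L each) were ozonated in 4 mM phosphate buffer, pH 7, with 80 mM tBuOH as OH-radical scavenger, at 22 ± 1 °C. Peak-area abatement was measured by HPLC-HRMS/MS and k was derived from ln-ln slopes against competitors with known k (R2 > 0.9, >= 10 points, slope 0.1-10). Experiments were run in triplicate on 3 days; the value is the mean over valid competitors ± SD.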
row,SMILES,apparent second-order rate constant
1,CCC1OC(=O)C(C)C(OC2CC(C)(OC)C(O)C(C)O2)C(C)C(OC2OC(C)CC(N(C)C)C2O)C(C)(OC)CC(C)C(=O)C(C)C(O)C1(C)O (stereo not given) [Clarithromycin],65000 ± 15000
2,"Nc1c(I)c(N)c(I)c(C(=O)O)c1I [3,5-Diamino-2,4,6-triiodobenzoic acid]",1.02e+07 ± 700000
3,Nc1nnc(-c2cccc(Cl)c2Cl)c(N)n1 [Lamotrigine],17.1 ± 1.2
4,CC(C)c1c(C(=O)Nc2ccccc2O)c(-c2ccccc2)c(-c2ccc(F)cc2)n1CCC(O)CC(O)CC(=O)O (stereo not given) [ortho-Hydroxyatorvastatin],1.8e+08 ± 4e+07
5,O=C(O)COCCN1CCN(C(c2ccccc2)c2ccc(Cl)cc2)CC1 (stereo not given) [Cetirizine],359000 ± 31000
6,CCCC1CC(C(=O)NC(C(C)Cl)C2OC(S(C)=O)C(O)C(O)C2O)N(C)C1 (stereo not given) [Clindamycin-sulfoxide],336000 ± 30000
7,CN1CCN2c3ncc(O)cc3Cc3ccccc3C2C1 (stereo not given) [8-Hydroxymirtazapine],5.4e+07 ± 1.2e+07
8,CC[C@H]1OC(=O)[C@H](C)[C@@H](O[C@H]2C[C@@](C)(OC)[C@@H](O)[C@H](C)O2)[C@H](C)[C@@H](O[C@@H]2O[C@H](C)C[C@H]([N+](C)(C)[O-])[C@H]2O)[C@](C)(OC)C[C@@H](C)C(=O)[C@H](C)[C@@H](O)[C@]1(C)O [Clarithromycin-N-oxide],< 0.401
9,COc1ccc([C@@H]2Sc3ccccc3N(CCN(C)C)C(=O)[C@@H]2O)cc1 [Desacetyldiltiazem],668000 ± 57000
10,NS(=O)(=O)c1cc2c(cc1Cl)NC=NS2(=O)=O [Chlorothiazide],1.57 ± 0.17
11,CC(=O)Nc1ccc(S(=O)(=O)Nc2nccs2)cc1 [N4-Acetylsulfathiazole],1.02e+07 ± 1.2e+06
12,CNCCC(c1ccccc1)c1ccccn1 (stereo not given) [N-Desmethylpheniramine],975 ± 49
13,CCN(CC)CC(=O)Nc1c(C)cccc1C [Lidocaine],185000 ± 17000
14,COc1cc(Cc2cnc(N)nc2N)cc(O)c1OC [3-Desmethyltrimethoprim],1.17e+07 ± 900000
15,O=C(O)Cc1cc(O)ccc1Nc1c(Cl)cccc1Cl [5-Hydroxydiclofenac],6.4e+07 ± 1.4e+07
16,Cc1cccc(C)c1NC(=O)CN1CCN(CC(O)CO)CC1 (stereo not given) [O-Desarylranolazine],570000 ± 48000
17,"N[C@@H](Cc1cc(I)c(O)c(I)c1)C(=O)O [3,5-Diiodo-L-tyrosine]",2.87e+06 ± 220000
18,O=c1nc2[nH][nH]cc-2c(=O)[nH]1 [Oxypurinol],4 ± 2.5
19,CC(=O)N(C)N(C(=O)C(=O)N(C)C)c1ccccc1 [Dioxypyramidon (AMDOPH)],< 0.401
20,c1cncc(C2CCCN2)c1 (stereo not given) [Nornicotine],6350 ± 520
21,NCC1(CC(=O)O)CCCCC1 [Gabapentin],11.4 ± 1.2
22,CN1C(=O)CCC1c1cccnc1 (stereo not given) [Cotinine],2.9 ± 0.3
23,Nc1ccn([C@@H]2CS[C@H](CO)O2)c(=O)n1 [Lamivudine],61000 ± 14000
24,Clc1ccc2c(c1)CCc1cccnc1C2=C1CCNCC1 [Desloratadine],1960 ± 160
25,COc1ccnc(CS(=O)c2nc3ccc(OC(F)F)cc3[nH]2)c1OC (stereo not given) [Pantoprazole],108 ± 5.6

row,SMILES,apparent second-order rate constant
1,Nc1ccn(C2OC(CO)C(O)C2(F)F)c(=O)n1 (stereo not given) [Gemcitabine],390 ± 30
2,COc1ccc2c(c1)C13CCCCC1C(C2)N(C)CC3 (stereo not given) [Dextromethorphan],5580 ± 96
3,C1=Cc2ccccc2Nc2ccccc21 [Iminostilbene],7.6e+07 ± 1.7e+07
4,CCC1OC(=O)C(C)C(OC2CC(C)(OC)C(O)C(C)O2)C(C)C(OC2OC(C)CC(NC)C2O)C(C)(O)CC(C)CN(C)C(C)C(O)C1(C)O (stereo not given) [N-Desmethylazithromycin],10300 ± 980
5,O=C(O)C(c1ccccc1Cl)N1CCc2sccc2C1 (stereo not given) [Clopidogrel carboxylic acid],175000 ± 14000
6,CC1(C)SC(CNC(=O)C(N)c2ccc(O)cc2)NC1C(=O)O (stereo not given) [Amoxicillin impurity E],9e+06 ± 1.9e+06
7,Cn1c(=O)c2[nH]cnc2n(C)c1=O [Theophylline],885000 ± 78000
8,CNCC(c1ccc(OC)cc1)C1(O)CCCCC1 (stereo not given) [N-Desmethylvenlafaxine],993 ± 55
9,CC(CN(C)C)CN1c2ccccc2CCc2ccccc21 (stereo not given) [Trimipramine],2e+06 ± 400000
10,CC(=O)Nc1ccc(S(=O)(=O)Nc2nc(C)cc(C)n2)cc1 [N4-Acetylsulfamethazine],815 ± 43
11,Cn1cnc2c1c(=O)[nH]c(=O)n2C [Theobromine],1200 ± 65
12,COc1ccc2c3c1OC1C(O)C=CC4C(C2)N(C)CCC341 (stereo not given) [Codeine],1.03e+06 ± 88000
13,CC(C)OC(=O)C(C)(C)Oc1ccc(C(=O)c2ccc(Cl)cc2)cc1 [Fenofibrate],1.27 ± 0.17
14,CCCCc1nc(Cl)c(CO)n1Cc1ccc(-c2ccccc2-c2nn[nH]n2)cc1 [Losartan],198000 ± 16000
15,CCC(C(N)=O)N1CCCC1=O (stereo not given) [Levetiracetam],0.81 ± 0.09
16,CCCC1CC(C(=O)NC(C(C)Cl)C2OC(SC)C(O)C(O)C2O)N(C)C1 (stereo not given) [Clindamycin],749000 ± 65000
17,CC1CC2C(C(O)CC3(C)C2CCC3(O)C(=O)CO)C2(C)C=CC(=O)C=C12 (stereo not given) [Methylprednisolone],87 ± 4.5
18,CC(=O)Nc1c(I)c(NC(C)=O)c(I)c(C(=O)O)c1I [Diatrizoate],230 ± 30
19,CCOC(=O)C1=C(COCCN)NC(C)=C(C(=O)OC)C1c1ccccc1Cl (stereo not given) [Amlodipine],9.9e+07 ± 2.2e+07
20,Cc1c(N)c(=O)n(-c2ccccc2)n1C [4-Aminoantipyrine],294000 ± 26000
21,CC(C)(Oc1ccc(C(=O)c2ccc(Cl)cc2)cc1)C(=O)O [Fenofibric acid],2.8 ± 0.3
22,CNCC(O)c1cccc(OS(=O)(=O)O)c1 (stereo not given) [Phenylephrine-3-O-sulfate],2890 ± 220
23,CNC(=C[N+](=O)[O-])NCC[S+]([O-])Cc1ccc(CN(C)C)o1 (stereo not given) [Ranitidine-S-oxide],1.75e+06 ± 70000
24,NC1(c2ccccc2Cl)CCCCC1=O (stereo not given) [Norketamine],37.5 ± 2.5
25,"O=c1ccn(C2OC(CO)C(O)C2(F)F)c(=O)[nH]1 (stereo not given) [2'-Deoxy-2',2'-difluorouridine]",562 ± 27

# From the supplement of paper PMC12490022
